Source: paper PMC11576293, “New series of 4,6-diaryl pyrimidines: facile synthesis and antiproliferative activity as dual EGFR/VEGFR-2 inhibitors” (Frontiers in Chemistry, 2024)

Experiments:
SW-620 = experiment: NCI-60 single-dose screen; assay type: cell-based; conditions: Homo sapiens, single dose 10 µM, '-' = no inhibition, read-out: % Growth Inhibition
In short: (§1)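 NCI DTP single-dose screen; 10 μM compound; 60-line panel, nine cancer types.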

HCT-15 = experiment: NCI-60 single-dose screen; assay type: cell-based; conditions: Homo sapiens, single dose 10 µM, '-' = no inhibition, read-out: % Growth Inhibition
In short: as §1

SK-MEL-28 = experiment: NCI-60 single-dose screen; assay type: cell-based; conditions: Homo sapiens, single dose 10 µM, '-' = no inhibition, read-out: % Growth Inhibition
In short: as §1

NCI-H522 = experiment: NCI-60 single-dose screen; assay type: cell-based; conditions: Homo sapiens, single dose 10 µM, '-' = no inhibition, read-out: % Growth Inhibition
In short: as §1

DU-145 = experiment: NCI-60 single-dose screen; assay type: cell-based; conditions: Homo sapiens, single dose 10 µM, '-' = no inhibition, read-out: % Growth Inhibition
In short: as §1

HT29 = experiment: NCI-60 single-dose screen; assay type: cell-based; conditions: Homo sapiens, HT-29, single dose 10 µM, '-' = no inhibition, read-out: % Growth Inhibition
In short: as §1

T-47D = experiment: NCI-60 single-dose screen; assay type: cell-based; conditions: Homo sapiens, T47D, single dose 10 µM, '-' = no inhibition, read-out: % Growth Inhibition
In short: as §1

A498 = experiment: NCI-60 single-dose screen; assay type: cell-based; conditions: Homo sapiens, single dose 10 µM, '-' = no inhibition, read-out: % Growth Inhibition
In short: as §1

SK-MEL-5 = experiment: NCI-60 single-dose screen; assay type: cell-based; conditions: Homo sapiens, single dose 10 µM, '-' = no inhibition, read-out: % Growth Inhibition
In short: as §1

OVCAR-5 = experiment: NCI-60 single-dose screen; assay type: cell-based; conditions: Homo sapiens, single dose 10 µM, '-' = no inhibition, read-out: % Growth Inhibition
In short: as §1

HL-60(TB) = experiment: NCI-60 single-dose screen; assay type: cell-based; conditions: Homo sapiens, single dose 10 µM, '-' = no inhibition, read-out: % Growth Inhibition
NCI-H322M = experiment: NCI-60 single-dose screen; assay type: cell-based; conditions: Homo sapiens, single dose 10 µM, '-' = no inhibition, read-out: % Growth Inhibition
In short: as §1

SK-OV-3 = experiment: NCI-60 single-dose screen; assay type: cell-based; conditions: Homo sapiens, single dose 10 µM, '-' = no inhibition, read-out: % Growth Inhibition
In short: as §1

NCI-H460 = experiment: NCI-60 single-dose screen; assay type: cell-based; conditions: Homo sapiens, single dose 10 µM, '-' = no inhibition, read-out: % Growth Inhibition
In short: as §1

SF-268 = experiment: NCI-60 single-dose screen; assay type: cell-based; conditions: Homo sapiens, single dose 10 µM, '-' = no inhibition, read-out: % Growth Inhibition
In short: as §1

CCRF-CEM = experiment: NCI-60 single-dose screen; assay type: cell-based; conditions: Homo sapiens, single dose 10 µM, '-' = no inhibition, read-out: % Growth Inhibition
In short: as §1

K-562 = experiment: NCI-60 single-dose screen; assay type: cell-based; conditions: Homo sapiens, K562, single dose 10 µM, '-' = no inhibition, read-out: % Growth Inhibition
In short: as §1

TK-10 = experiment: NCI-60 single-dose screen; assay type: cell-based; conditions: Homo sapiens, single dose 10 µM, '-' = no inhibition, read-out: % Growth Inhibition
In short: as §1

U251 = experiment: NCI-60 single-dose screen; assay type: cell-based; conditions: Homo sapiens, U-251, single dose 10 µM, '-' = no inhibition, read-out: % Growth Inhibition
In short: as §1

CAKI-1 = experiment: NCI-60 single-dose screen; assay type: cell-based; conditions: Homo sapiens, single dose 10 µM, '-' = no inhibition, read-out: % Growth Inhibition
In short: as §1

UACC-62 = experiment: NCI-60 single-dose screen; assay type: cell-based; conditions: Homo sapiens, single dose 10 µM, '-' = no inhibition, read-out: % Growth Inhibition
In short: as §1

MOLT-4 = experiment: NCI-60 single-dose screen; assay type: cell-based; conditions: Homo sapiens, single dose 10 µM, '-' = no inhibition, read-out: % Growth Inhibition
In short: as §1

M14 = experiment: NCI-60 single-dose screen; assay type: cell-based; conditions: Homo sapiens, single dose 10 µM, '-' = no inhibition, read-out: % Growth Inhibition
In short: as §1

SF-295 = experiment: NCI-60 single-dose screen; assay type: cell-based; conditions: Homo sapiens, single dose 10 µM, '-' = no inhibition, read-out: % Growth Inhibition
In short: as §1

MDA-MB-468 = experiment: NCI-60 single-dose screen; assay type: cell-based; conditions: Homo sapiens, single dose 10 µM, '-' = no inhibition, read-out: % Growth Inhibition
In short: as §1

LOX IMVI = experiment: NCI-60 single-dose screen; assay type: cell-based; conditions: Homo sapiens, single dose 10 µM, '-' = no inhibition, read-out: % Growth Inhibition
In short: as §1

KM12 = experiment: NCI-60 single-dose screen; assay type: cell-based; conditions: Homo sapiens, single dose 10 µM, '-' = no inhibition, read-out: % Growth Inhibition
In short: as §1

SK-MEL-2 = experiment: NCI-60 single-dose screen; assay type: cell-based; conditions: Homo sapiens, single dose 10 µM, '-' = no inhibition, read-out: % Growth Inhibition
In short: as §1

HCC-2998 = experiment: NCI-60 single-dose screen; assay type: cell-based; conditions: Homo sapiens, single dose 10 µM, '-' = no inhibition, read-out: % Growth Inhibition
In short: as §1

HOP-62 = experiment: NCI-60 single-dose screen; assay type: cell-based; conditions: Homo sapiens, single dose 10 µM, '-' = no inhibition, read-out: % Growth Inhibition
In short: as §1

786-0 = experiment: NCI-60 single-dose screen; assay type: cell-based; conditions: Homo sapiens, single dose 10 µM, '-' = no inhibition, read-out: % Growth Inhibition
In short: as §1

NCI-H23 = experiment: NCI-60 single-dose screen; assay type: cell-based; conditions: Homo sapiens, single dose 10 µM, '-' = no inhibition, read-out: % Growth Inhibition
In short: as §1

OVCAR-4 = experiment: NCI-60 single-dose screen; assay type: cell-based; conditions: Homo sapiens, single dose 10 µM, '-' = no inhibition, read-out: % Growth Inhibition
In short: as §1

ACHN 1 = experiment: NCI-60 single-dose screen; assay type: cell-based; conditions: Homo sapiens, single dose 10 µM, '-' = no inhibition, read-out: % Growth Inhibition
In short: as §1

SMILES	inhibition at 10 µM (SW-620)	inhibition at 10 µM (HCT-15)	inhibition at 10 µM (SK-MEL-28)	inhibition at 10 µM (NCI-H522)	inhibition at 10 µM (DU-145)	inhibition at 10 µM (HT29)	inhibition at 10 µM (T-47D)	inhibition at 10 µM (A498)	inhibition at 10 µM (SK-MEL-5)	inhibition at 10 µM (OVCAR-5)	inhibition at 10 µM (HL-60(TB))	inhibition at 10 µM (NCI-H322M)	inhibition at 10 µM (SK-OV-3)	inhibition at 10 µM (NCI-H460)	inhibition at 10 µM (SF-268)	inhibition at 10 µM (CCRF-CEM)	inhibition at 10 µM (K-562)	inhibition at 10 µM (TK-10)	inhibition at 10 µM (U251)	inhibition at 10 µM (CAKI-1)	other results
COc1ccc(CSc2nc(-c3ccc(Cl)cc3)cc(-c3ccc(OC)c(OC)c3)n2)cc1 [Compound 29, 2-(4-Methoxybenzylthio)-4-(4-chlorophenyl)-6-(3,4-dimethoxyphenyl)pyrimidine]	12.7%	42.1%	11.3%	23.1%	28.6%	38%	34.6%	< 0%	22.6%	7.38%	38.8%	17.4%	13.9%	21.2%	33%	14.2%	54.5%	< 0%	23.3%	23.1%	inhibition at 10 µM (UACC-62): 38.7%; inhibition at 10 µM (MOLT-4): 46.5%; inhibition at 10 µM (M14): 19.3%; inhibition at 10 µM (SF-295): 16.7%; inhibition at 10 µM (MDA-MB-468): 40.2%; inhibition at 10 µM (LOX IMVI): 20.9%; inhibition at 10 µM (KM12): 24.8%; inhibition at 10 µM (SK-MEL-2): 13.7%; inhibition at 10 µM (HCC-2998): < 0%; inhibition at 10 µM (HOP-62): 16.4%; inhibition at 10 µM (786-0): 11.6%; inhibition at 10 µM (NCI-H23): 14.6%; inhibition at 10 µM (OVCAR-4): 21.9%; inhibition at 10 µM (ACHN 1): 13.2%; melting point: 279 to 281 °C
C=CCSc1nc(-c2ccc(Cl)cc2)cc(-c2ccc(OC)c(OC)c2)n1 [Compound 27, 2-(Allylthio)-4-(4-chlorophenyl)-6-(3,4-dimethoxyphenyl)pyrimidine]	1.7%	18.8%	< 0%	16.4%	2.02%	22.6%	23.1%	< 0%	12.2%	< 0%	29.2%	< 0%	< 0%	6.7%	< 0%	13.1%	42%	< 0%	< 0%	13.1%	inhibition at 10 µM (UACC-62): 26%; inhibition at 10 µM (MOLT-4): 28.5%; inhibition at 10 µM (M14): 0.06%; inhibition at 10 µM (SF-295): 3%; inhibition at 10 µM (MDA-MB-468): 23.7%; inhibition at 10 µM (LOX IMVI): 7.11%; inhibition at 10 µM (KM12): 3.43%; inhibition at 10 µM (SK-MEL-2): 0.52%; inhibition at 10 µM (HCC-2998): < 0%; inhibition at 10 µM (HOP-62): < 0%; inhibition at 10 µM (786-0): 2.53%; inhibition at 10 µM (NCI-H23): 7.78%; inhibition at 10 µM (OVCAR-4): 10.3%; inhibition at 10 µM (ACHN 1): 6.5%; melting point: 244 to 246 °C
